System: immature castrated male rat
Assay: immature castrated male rat model: ventral prostate, seminal vesicle and levator ani growth
Format: in vivo
Settings: oral; for LA (wet wt) / LA eff (% intact) / SV (wet wt) / SV eff (% intact) / VP (wet wt) / VP eff (% of intact): Table 4, castrated immature rats, once daily, 3 days
From the text: The activity of selected compounds of the present invention as AR agonists was investigated in an immature castrated male rat model, a recognized test of the androgen of a given compound, as described in L. G. Hershberger et al., “Myotrophic Activity of 19-Nortestosterone and Other Steroids Determined by Modified Levator Ani Muscle Method” 83 Proc. Soc. Exptl.
The basis of this assay is the fact that the male sexual accessory organs, such as the prostate and seminal vesicles, play an important role in reproductive function. […] F. Labrie et al. 16 Clin. Invest. […] However, this is not a major pathway, since in both animals and humans, castration leads to almost complete involution of the prostate and seminal vesicles without concomitant adrenalectomy. […] Since the male sex organs are the tissues most responsive to modulation of androgen activity, this model is used to determine the androgen-dependent growth of the sex accessory organs in immature castrated rats. […] Male immature rats ([…], 21-day-old, Sprague-Dawley, Harlan) were castrated under metofane anesthesia. Immediately after surgery, animals groups were dosed for 3 days as follows:
At the end of the 3-day treatment, the animals were sacrificed, and the ventral prostates (VP), seminal vesicles (SV), and levator ani (LA) were collected and weighed. The sexual organ weights were first standardized as mg per 100 g of body weight, and the increase in organ weight induced by the compounds of the present invention was compared to the castrate control animals. […] Super-anova (one factor) was used for statistical analysis.
The gain and loss of sexual organ weights reflect the changes of cell number (DNA content) and cell mass (protein content), depending upon the serum androgen concentration. […] Therefore, measurement of organ wet weights is sufficient to indicate the bioactivity of androgens and androgen antagonists.

O=c1cc(C(F)(F)F)c2cc3c(cc2[nH]1)OCCN3CC(F)(F)F [Compound 105, 1,2,3,6-Tetrahydro-1-(2,2,2-trifluoroethyl)-9-(trifluoromethyl)-7H-[1,4]oxazino[3,2-g]quinolin-7-one]
LA (wet wt) (3 mg/kg): 33.0 ± 2.4 mg/100 g body weight
LA eff (% intact) (3 mg/kg): 306 ± 140%
SV (wet wt) (3 mg/kg): 8.5 ± 0.7 mg/100 g body weight
SV eff (% intact) (3 mg/kg): 15 ± 13%
VP (wet wt) (3 mg/kg): 26.9 ± 1.1 mg/100 g body weight
VP eff (% of intact) (3 mg/kg): 12 ± 5%
LA (wet wt) (10 mg/kg): 36.3 ± 1.3 mg/100 g body weight
LA eff (% intact) (10 mg/kg): 498 ± 73%
SV (wet wt) (10 mg/kg): 9.9 ± 0.4 mg/100 g body weight
SV eff (% intact) (10 mg/kg): 42 ± 8.2%
VP (wet wt) (10 mg/kg): 35.9 ± 2.7 mg/100 g body weight
VP eff (% of intact) (10 mg/kg): 52 ± 12%
LA (wet wt) (30 mg/kg): 35.8 ± 1.2 mg/100 g body weight
LA eff (% intact) (30 mg/kg): 469 ± 71%
SV (wet wt) (30 mg/kg): 11.7 ± 1.4 mg/100 g body weight
SV eff (% intact) (30 mg/kg): 78 ± 26%
VP (wet wt) (30 mg/kg): 30.1 ± 2.1 mg/100 g body weight
VP eff (% of intact) (30 mg/kg): 26 ± 9%
LA (wet wt) (100 mg/kg): 39.7 ± 0.6 mg/100 g body weight
LA eff (% intact) (100 mg/kg): 696 ± 36%
SV (wet wt) (100 mg/kg): 14.4 ± 1.0 mg/100 g body weight
SV eff (% intact) (100 mg/kg): 131 ± 19%
VP (wet wt) (100 mg/kg): 42.1 ± 1.6 mg/100 g body weight
VP eff (% of intact) (100 mg/kg): 80 ± 7%
AR agonist activity: weights of the VP, SV and LA (immature castrated rat, statement in words): exhibited AR agonist activity
